From paper PMC12844208, “Screening for Peptides to Bind and Functionally Inhibit SARS-CoV-2 Fusion Peptide Using Mirrored Combinatorial Phage Display and Human Proteomic Phage Display” (Molecules, 2026)
“Also recorded” adds a separate entry of the source. Ends that are not written are not given here.

Experiments:
[1] = system: SARS-CoV-2 infection of Vero-E6/TMPRSS2 cells; test: microbe, parasite or virus in culture; assay type: cell-based
[2] = system: D-FP12_biotin (SARS-CoV-2 spike fusion peptide synthesised as a D-peptide); assay type: binding
FP = test: Preliminary screen of FP versus a pan-coronaviral phage display library; design: species or system SARS-CoV-2; details: lack of binding to homologous regions of other coronaviruses placed the finding in doubt
Description: Proteomic phage display of peptide regions of proteins is also possible for viral as well as host proteins, and a preliminary screen of FP versus a pan-coronaviral phage display library of regions of coronaviral proteins was carried out following the methods previously outlined, which only identified a single peptide, despite a large amount of sequencing data obtained. This 39mer […] peptide was derived from the nsp3 (protease-encoding) protein of coronavirus 229E comprising the last four residues of the loop between Y2 and Y3 regions and the first 35 residues of the Y3 region. Y3 plays a role in double-membrane vesicle formation, but the lack of binding to homologous regions of other coronaviruses in the library placed the finding in doubt.

[3] = system: anti-Borrelia burgdorferi immune sera; details: occurrences in the anti-Borrelia burgdorferi immune sera NEB PhD7 screening dataset; cited from earlier work
Text: Table 2 Ten enriched PhD7-mer L-peptides tested in antiviral assays as D-peptides. | column: Occurrence in an Unrelated Screen

Row | Molecule | Read Count [2] | further results
1 | CCC(CC)COC(=O)[C@H](C)N[P@](=O)(OC[C@H]1O[C@@](C#N)(c2ccc3c(N)ncnn23)[C@H](O)[C@@H]1O)Oc1ccccc1 [Remdesivir, reference compound] |  | inhibition of infection (in words) [1]: strongly inhibited; inhibition at 5 µM ([1]; Severe acute respiratory syndrome coronavirus 2, VeroE6/TMPRSS2, read-out: inhibition of infection): 95%
2 | ETSTMYP | 3552 | effect on SARS-CoV-2 infection (number of infected cells compared to vehicle controls) [1]: exception
3 | HDTTLIT | 169,773 | 
4 | HFARHLA | 7063 | 
5 | LEVYYET | 3570 | 
6 | LSTLSVDFNGVLHKAYIDVLRNSFGKDLNANMSLAECKR |  | peptide identified as binding FP in the pan-coronaviral library (FP): identified
7 | LTSLPRN | 4284 | 
8 | NTWPYKP | 264,257 | Occurrence in an Unrelated Screen [3]: 1
9 | RDHYMMF | 7135 | 
10 | RRRRRRRRGPDRNFRLSEHRQALA-NH2 [OTUD1-derived peptide] |  | inhibition of SARS-CoV-2 infection of Vero-E6/TMPRSS2 cells (in words) [1]: no evidence for any marked impact; also recorded: failed to inhibit viral infection
11 | SLTGTRF | 11,170 | 
12 | WSLGYTG | 6,280,489 | Occurrence in an Unrelated Screen [3]: 4
13 | WSRGYTG | 3676 | 
